The values that follow are results of earlier work, collected in patent publication US4096336A, “5,6-Benzo analogues or prostaglandin E” (Miles Laboratories, Inc., priority 1977, dated 1978).

Like-named read-outs stand apart in the source and are kept apart here.

For one series, the system named is growth hormone. Conditions: rats.
Series [1] concerns gastric secretion. Conditions: dogs.
Series [2] has as its system gastric secretion. Conditions: man.
In series [3] the test system is ovarian progesterone secretion. Conditions: sheep.
Another series concerns thyroid activity. Conditions: mice.
A further series concerns adrenal glands. Conditions: hypophysectimized rats.
For series [4], the system named is smooth muscle of the vas deferens. Conditions: mammalian male reproductive system.
The test system of series [5] is motor pathways in the central nervous system.
The subject of series [6] is adrenergic nervie endings. Conditions: guinea pig.
For a further series, the system named is tracheal smooth muscle. Conditions: in vitro preparations.
In the next series the test system is blood platelets. Conditions: in vitro.
Series [7] has as its system female reproductive system.
The next series relates to luteolytic factors. Conditions: variety of mammals.

Take `CCCCC[C@H](O)/C=C/[C@H]1C=CC(=O)[C@@H]1CCCCCCC(=O)O` [PGA1]: the “synthesis of growth hormone” value in the series on growth hormone is “increased synthesis of that hormone”. The gastric secretion entry was “inhibit gastric secretion” in the series with gastric secretion [1] and “exhibits similar activity in man” with gastric secretion [2].

Turning to `CCCCC[C@H](O)/C=C/[C@H]1[C@H](O)CC(=O)[C@@H]1CCCCCCC(=O)O` [PGE1, prostaglandin E1], the “release of growth hormone” value with growth hormone is on record as “increase release of growth hormone”. Moreover, in series [3], the ovarian progesterone secretion result is “inhibit ovarian progesterone secretion”. Besides, in the series on thyroid activity, the thyroid activity entry was “increase thyroid activity”. The “steriodogenesis in the adrenal glands” value with adrenal glands is reported as “stimulate steriodogenesis in the adrenal glands”. Also, in series [4], the “effect on smooth muscle of the vas deferens” value was “contracts the smooth muscle of the vas deferens”. The “transmission in motor pathways” value in series [5] is “retards”. Besides, in [6], the “transmitter release from adrenergic nerve endings” value is “inhibit transmitter release”. In addition, the gastric secretion entry in the series with gastric secretion [1] is recorded as “inhibit gastric secretion”. For the same compound, in the series with tracheal smooth muscle, the “effect on tracheal smooth muscle” value is given as “relax”. Further, the thrombogenesis entry in the series on blood platelets is given as “inhibits thrombogenesis in vitro”.

As for `CCCCC[C@H](O)/C=C/[C@H]1[C@H](O)CC(=O)[C@@H]1C/C=C\CCCC(=O)O` [PGE2], the “release of growth hormone” value in the series with growth hormone is recorded as “increase release of growth hormone”. For the same compound, the thyroid activity result with thyroid activity was “increase thyroid activity”. In the series with adrenal glands, the “steriodogenesis in the adrenal glands” value was “stimulate steriodogenesis in the adrenal glands”. Moreover, the oxytocic effects entry in series [7] (inducing labor) is “exerts potent oxytocic effects in inducing labor”. In series [6], the “transmitter release from adrenergic nerve endings” value is reported as “inhibit transmitter release”. In addition, the gastric secretion entry with gastric secretion [1] is given as “inhibit gastric secretion”. Further, the “effect on tracheal smooth muscle” value with tracheal smooth muscle was “relax”.

`CCCCC[C@H](O)/C=C/[C@@H]1[C@@H](CCCCCCC(=O)O)[C@@H](O)C[C@H]1O` [PGF1α]: in series [3], the ovarian progesterone secretion entry is listed as “inhibit ovarian progesterone secretion”. Moreover, the luteolytic action entry with luteolytic factors is given as “act as luteolytic factors”. Moreover, the thyroid activity entry in the series on thyroid activity is “increase thyroid activity”. Further, in the series with adrenal glands, the “steriodogenesis in the adrenal glands” value is listed as “stimulate steriodogenesis in the adrenal glands”.

Turning to `CCCCC[C@H](O)/C=C/[C@@H]1[C@@H](CCCCCCC(=O)O)[C@H](O)C[C@H]1O` [PGF1β], the thyroid activity result in the series with thyroid activity is on record as “increase thyroid activity”.

With `CCCCC[C@H](O)/C=C/[C@@H]1[C@@H](C/C=C\CCCC(=O)O)[C@@H](O)C[C@H]1O` [PGF2α], in series [7] (early pregnancy), the “induction of spontaneous abortions” value is reported as “induces spontaneous abortions in early pregnancy”. Also, the “effect on fertility / gestation” value in [7] (female reproductive system) was “has contragestational effects”. Besides, the “transmission in motor pathways” value in series [5] was “facilitates transmission in motor pathways in the central nervous system”. Also, the “effect on tracheal smooth muscle” value with tracheal smooth muscle is recorded as “contracts the smooth muscle”.
